{"source": "paper PMC4916434", "about": "“Evaluation of the inhibition potential of plumbagin against cytochrome P450 using LC-MS/MS and cocktail approach” (Scientific Reports, 2016)", "key": {"CYP2D1": {"target": "T1, CYP2D1 (Rattus norvegicus, UniProt P10633)", "T1 construct": "consisting of pooled HLMs (0.5 mg/ml) or RLMs (1 mg/ml) and an NADPH-regenerating system; from tissue; host or cells: rat liver microsomes prepared in house", "T1 sequence (P10633 1-504)": "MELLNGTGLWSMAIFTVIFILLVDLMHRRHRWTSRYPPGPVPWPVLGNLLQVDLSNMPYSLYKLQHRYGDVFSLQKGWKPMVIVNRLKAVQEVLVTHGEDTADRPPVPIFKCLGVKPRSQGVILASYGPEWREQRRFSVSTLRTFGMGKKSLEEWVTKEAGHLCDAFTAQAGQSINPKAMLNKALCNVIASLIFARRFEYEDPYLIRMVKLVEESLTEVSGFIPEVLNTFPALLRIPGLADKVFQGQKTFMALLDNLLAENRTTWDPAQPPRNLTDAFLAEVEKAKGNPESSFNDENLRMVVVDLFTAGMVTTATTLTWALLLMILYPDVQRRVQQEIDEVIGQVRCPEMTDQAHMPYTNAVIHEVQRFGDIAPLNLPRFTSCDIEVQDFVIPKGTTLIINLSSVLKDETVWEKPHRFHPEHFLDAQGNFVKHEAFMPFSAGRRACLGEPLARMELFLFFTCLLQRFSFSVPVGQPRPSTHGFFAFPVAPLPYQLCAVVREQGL", "assay_type": "in vitro ADME", "description": "(§1) In this study, the rats were fasted overnight and killed by cervical dislocation before removal of the liver. The liver was excised, rinsed with ice-cold saline (0.9% NaCl w/v), weighed and homogenized in a […] Tris/KCl buffer (pH 7.4). Subsequently, the homogenate was centrifuged at 10,000 × g at 4 °C for 30 min. The supernatant was then centrifuged at 105,000 × g at 4 °C for 60 min. The pellet was reconstituted with […] Tris/KCl buffer (pH 7.4) and stored at −150 °C until use. The protein concentration of the liver microsomes was determined by a protein quantitative assay using bicinchoninic acid[22].\n(§2) Microsomal incubation was carried out at 37 °C in a mixture of 200 μl in 0.05 M Tris/HCl buffer (pH 7.4) consisting of pooled HLMs (0.5 mg/ml) or RLMs (1 mg/ml) and an NADPH-regenerating system including MgCl2 (5 mM), G6P (10 mM), G6PDH (0.4 U/ml) and NADP (1 mM). Substrates were added into the incubation mixture and obtained the final concentrations (10 μM phenacetin for CYP1A2, 20 μM bupropion for CYP2B1/6, 20 μM tolbutamide for CYP2C9/11, 5 μM dextromethorphan for CYP2D1/6, 20 μM chlorzoxazone for CYP2E1 and 10 μM midazolam for CYP3A2/4), which were close to Km respectively. The proportion of organic solvent was not higher than 1% (v/v) in the incubation mixture. After pre-incubation for 5 min, the reaction was initiated by addition of NADP. Incubations were performed for 20 min, stopped by adding 200 μl ice-cold acetonitrile. And then 20 μl internal standard solution was added (3-acetamidophenol 2 μg/ml, chlorpropamide 2 μg/ml and mebendazole 2 μg/ml). The solution was mixed thoroughly for 3 min and centrifuged for 10 min at 16,000 × g at 4 °C. The supernatant (60 μl) was transferred to autosampler vials, and 2 μl was injected into LC-MS/MS system.\n(§3) The IC50 (concentration of inhibitor to cause 50% inhibition of original enzyme activity) values were determined with the same incubation condition above. The specific concentrations of plumbagin were ranged from 0.1 μM to 50 μM. The IC50 values were calculated by plotting relative activities over the logarithm of plumbagin concentrations using GraphPad Prism 5.0 (GraphPad software Inc., CA, USA).\n(§4) Cocktail probe substrates were then added and incubated for 20 min. Reactions were stopped with 200 μl ice-cold acetonitrile. The samples were treated according to the microsomal incubation method and then injected into LC-MS/MS for analysis.\n(§5) Kinetic studies were performed for determining the types of inhibition on CYP by plumbagin. Pooled HLMs (0.5 mg/ml) or RLMs (1 mg/ml) with plumbagin (1 μM, 2 μM, 5 μM and 10 μM) were incubated in 0.05 M Tris/HCl buffer (pH 7.4) for 20 min at 37 °C. A series of concentrations for cocktail probe substrates were used: 2.5–20 μM phenacetin for CYP1A2; 5–40 μM bupropion for CYP2B1/6; 5–40 μM tolbutamide for CYP2C9/11; 1.25–10 μM dextromethorphan for CYP2D1/6; 5–40 μM chlorzoxazone for CYP2E1; 2.5–80 μM midazolam for CYP3A2; and 0.625–5 μM midazolam for CYP3A4. Enzyme kinetics as well as statistical analysis were performed using GraphPad Prism 5.0.\n(§6) All data were presented as mean ± SD. The IC50 values were fitted by non-linear regression analysis using GraphPad Prism 5.0. The kinetic parameters were obtained by fitting velocity data to kinetic models (Michaelis-Menten) using GraphPad Prism 5.0. The Lineweaver-Burk Plot (the reciprocal of reaction velocities versus the reciprocal of substrates concentrations) was used to determine the quality of fit to a specific inhibition model. The inhibition constant (Ki) was obtained by a secondary plot using the slopes of the primary Lineweaver-Burk Plot (Km/Vmax versus inhibitor concentrations). αKi was obtained from a secondary plot using the y-intercepts of the Lineweaver-Burk plot (1/Vmax versus inhibitor concentrations). All results were analyzed in quadruplicate. One-way analysis of variance was used to estimate the significance of differences. […]"}, "CYP2C11": {"target": "T2, CYP2C11 (Rattus norvegicus, UniProt P08683)", "T2 construct": "consisting of pooled HLMs (0.5 mg/ml) or RLMs (1 mg/ml) and an NADPH-regenerating system; from tissue; host or cells: rat liver microsomes prepared in house", "T2 sequence (P08683 1-500)": "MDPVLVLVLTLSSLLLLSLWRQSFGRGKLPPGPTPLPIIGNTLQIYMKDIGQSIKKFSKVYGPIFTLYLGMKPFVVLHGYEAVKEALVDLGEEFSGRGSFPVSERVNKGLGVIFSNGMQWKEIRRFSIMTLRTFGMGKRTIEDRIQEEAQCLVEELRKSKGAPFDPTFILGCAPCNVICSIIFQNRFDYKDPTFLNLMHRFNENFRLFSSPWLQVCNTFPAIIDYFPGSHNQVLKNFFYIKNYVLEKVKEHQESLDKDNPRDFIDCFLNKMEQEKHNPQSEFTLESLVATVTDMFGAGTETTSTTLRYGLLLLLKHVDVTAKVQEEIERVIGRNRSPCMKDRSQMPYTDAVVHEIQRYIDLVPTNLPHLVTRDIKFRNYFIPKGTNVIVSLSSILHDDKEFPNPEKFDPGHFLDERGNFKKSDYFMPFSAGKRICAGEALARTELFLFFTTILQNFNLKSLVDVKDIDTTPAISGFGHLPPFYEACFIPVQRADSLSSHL", "assay_type": "in vitro ADME", "description": "as §1, §2, §3, §4, §5, §6"}}, "data": [{"smiles": "CC1=CC(=O)c2c(O)cccc2C1=O", "note": "[plumbagin, 5-hydroxy-2-methyl-1,4-naphthoquinone]", "values": [{"measurement": "IC50", "setting": "CYP2D1", "value": 6.17, "unit": "µM"}, {"measurement": "Ki", "setting": "CYP2D1", "value": 9.49, "unit": "µM"}, {"measurement": "Type of inhibition", "setting": "CYP2D1", "value": "mixed-type"}, {"measurement": "α", "setting": "CYP2D1", "value": 0.69}, {"measurement": "αKi", "setting": "CYP2D1", "value": 13.79, "unit": "µM"}, {"measurement": "IC50", "setting": "CYP2C11", "value": 3.85, "unit": "µM"}, {"measurement": "Ki", "setting": "CYP2C11", "value": 7.85, "unit": "µM"}, {"measurement": "Type of inhibition", "setting": "CYP2C11", "value": "competitive"}]}]}
